In patent publication US20150141506A1, “INDANE DIMERS FOR USE IN THE TREATMENT OF AUTOIMMUNE INFLAMMATORY DISEASE” (Venantius Limited, priority 2012, published 2015):

Test system: IL2 release from Jurkat cells
Assay: Effect of compounds on IL-2 secretion in T lymphocytes (Jurkat 6.1, anti-CD3/anti-CD28 stimulated, ELISA)
Assay type: cell-based
Details: for IL-2 production, absolute values: 30 min pre-treatment, DMSO control 320.67 (plate 2), 338.25 (plate 3); for IL-2 production, absolute values / activity at 1 µM / activity at 10 µM: 24 h; for activity at 1 µM / activity at 10 µM: Homo sapiens, Jurkat, read-out: IL2 release as percentage of anti-CD3/CD28 stimulated release in presence of DMSO, Mean
Protocol: The T cell line Jurkat 6.1 (ATCC) was used. Cells were pre-treated for 30 min with 1 μM or 10 μM of the respective compound and then stimulated with plate-bound anti-CD3 (BD Pharmingen) and anti-CD28 (AnCell). DMSO was used as vehicle control. […] After 24 hs the supernatant was collected and IL-2 secretion was measured by ELISA.
Compounds were prepared by dissolution in DMSO to yield final concentrations of 1 and 10 μg/ml

COC(=O)c1ccc(C[C@]2(C3=Cc4ccccc4C3)Cc3ccccc3[C@@H]2O)cc1 [Compound 10, methyl 4-(((1R,2R)-1-hydroxy-2,3-dihydro-1H,1′H-[2,2′-biinden]-2-yl)methyl)benzoate]
IL-2 production, absolute values (compound 1 uM): 185.56 pg/mL

CCOC(=O)c1ccc(C[C@]2(C3=Cc4ccccc4C3)Cc3ccccc3[C@@H]2O)cc1 [Compound 11, ethyl 4-(((1R,2R)-1-hydroxy-2,3-dihydro-1H,1′H-[2,2′-biinden]-2-yl)methyl)benzoate]
IL-2 production, absolute values (compound 1 uM): 272.22 pg/mL
IL-2 production, absolute values (compound 10 uM): 105.11 pg/mL

CCCOC(=O)c1ccc(C[C@]2(C3=Cc4ccccc4C3)Cc3ccccc3[C@@H]2O)cc1 [Compound 12, propyl 4-(((1R,2R)-1-hydroxy-2,3-dihydro-1H,1′H-[2,2′-biinden]-2-yl)methyl)benzoate]
IL-2 production, absolute values (compound 1 uM): 240.22 pg/mL
IL-2 production, absolute values (compound 10 uM): 132.44 pg/mL

NC(=O)c1ccc(C[C@]2(C3=Cc4ccccc4C3)Cc3ccccc3[C@@H]2O)cc1 [Compound 13, 4-{[(1′R,2′R)-1′-hydroxy-1′,3′-dihydro-1H,2′H-2,2′-biinden-2′-yl]methyl}benzamide]
IL-2 production, absolute values (compound 1 uM): 276.78 pg/mL
IL-2 production, absolute values (compound 10 uM): 151.78 pg/mL

O=C(NCCO)c1ccc(C[C@]2(C3=Cc4ccccc4C3)Cc3ccccc3[C@@H]2O)cc1 [Compound 14, 4-{[(1′R,2′R)-1′-hydroxy-1′,3′-dihydro-1H,2′H-2,2′-biinden-2′-yl]methyl}-N-(2-hydroxyethyl)benzamide]
IL-2 production, absolute values (compound 1 uM): 214.44 pg/mL
IL-2 production, absolute values (compound 10 uM): 146.44 pg/mL

CNC(=O)c1ccc(C[C@]2(C3=Cc4ccccc4C3)Cc3ccccc3[C@@H]2O)cc1 [Compound 15, 4-{[(1′R,2′R)-1′-hydroxy-1′,3′-dihydro-1H,2′H-2,2′-biinden-2′-yl]methyl}-N-methylbenzamide]
IL-2 production, absolute values (compound 1 uM): 207.78 pg/mL
IL-2 production, absolute values (compound 10 uM): 113.67 pg/mL

CN(C)C(=O)c1ccc(C[C@]2(C3=Cc4ccccc4C3)Cc3ccccc3[C@@H]2O)cc1 [Compound 16, 4-{[(1′R,2′R)-1′-hydroxy-1′,3′-dihydro-1H,2′H-2,2′-biinden-2′-yl]methyl}-N,N-dimethylbenzamide]
IL-2 production, absolute values (compound 1 uM): 243.00 pg/mL
IL-2 production, absolute values (compound 10 uM): 171.78 pg/mL

COC(=O)c1ccc(C[C@@]2(C3=Cc4ccccc4C3)Cc3ccccc3[C@H]2O)cc1 [Compound 17, methyl 4-(((1S,2S)-1-hydroxy-2,3-dihydro-1H,1′H-[2,2′-biinden]-2-yl)methyl)benzoate]
IL-2 production, absolute values (compound 1 uM): 168.44 pg/mL

CCOC(=O)c1ccc(C[C@@]2(C3=Cc4ccccc4C3)Cc3ccccc3[C@H]2O)cc1 [Compound 18, ethyl 4-(((1S,2S)-1-hydroxy-2,3-dihydro-1H,1′H-[2,2′-biinden]-2-yl)methyl)benzoate]
IL-2 production, absolute values (compound 1 uM): 190.78 pg/mL
IL-2 production, absolute values (compound 10 uM): 79.56 pg/mL

CCCOC(=O)c1ccc(C[C@@]2(C3=Cc4ccccc4C3)Cc3ccccc3[C@H]2O)cc1 [Compound 19, propyl 4-(((1S,2S)-1-hydroxy-2,3-dihydro-1H,1′H-[2,2′-biinden]-2-yl)methyl)benzoate]
IL-2 production, absolute values (compound 1 uM): 174.44 pg/mL
IL-2 production, absolute values (compound 10 uM): 81.00 pg/mL

NC(=O)c1ccc(C[C@@]2(C3=Cc4ccccc4C3)Cc3ccccc3[C@H]2O)cc1 [Compound 20, 4-{[(1′S,2′S)-1′-hydroxy-1′,3′-dihydro-1H,2′H-2,2′-biinden-2′-yl]methyl}benzamide]
IL-2 production, absolute values (compound 1 uM): 174.11 pg/mL
IL-2 production, absolute values (compound 10 uM): 141.78 pg/mL

O=C(NCCO)c1ccc(C[C@@]2(C3=Cc4ccccc4C3)Cc3ccccc3[C@H]2O)cc1 [Compound 21, 4-{[(1′S,2′S)-1′-hydroxy-1′,3′-dihydro-1H,2′H-2,2′-biinden-2′-yl]methyl}-N-(2-hydroxyethyl)benzamide]
IL-2 production, absolute values (compound 1 uM): 210.89 pg/mL
IL-2 production, absolute values (compound 10 uM): 137.78 pg/mL

CNC(=O)c1ccc(C[C@@]2(C3=Cc4ccccc4C3)Cc3ccccc3[C@H]2O)cc1 [Compound 22, 4-{[(1′S,2′S)-1′-hydroxy-1′,3′-dihydro-1H,2′H-2,2′-biinden-2′-yl]methyl}-N-methylbenzamide]
IL-2 production, absolute values (compound 1 uM): 198.56 pg/mL
IL-2 production, absolute values (compound 10 uM): 113.33 pg/mL

CN(C)C(=O)c1ccc(C[C@@]2(C3=Cc4ccccc4C3)Cc3ccccc3[C@H]2O)cc1 [Compound 23, 4-{[(1′S,2′S)-1′-hydroxy-1′,3′-dihydro-1H,2′H-2,2′-biinden-2′-yl]methyl}-N,N-dimethylbenzamide]
IL-2 production, absolute values (compound 1 uM): 191.44 pg/mL
IL-2 production, absolute values (compound 10 uM): 193.56 pg/mL

CC(C)C[C@H](N)C(=O)O[C@H]1c2ccccc2C[C@]1(Cc1ccc(C(=O)O)cc1)C1=Cc2ccccc2C1 [Compound 24, 4-{[(1′R,2′R)-1′-(L-leucyloxy)-1′,3′-dihydro-1H,2′H-2,2′-biinden-2′-yl]methyl}benzoic acid]
IL-2 production, absolute values (compound 1 uM): 202.13 pg/mL
IL-2 production, absolute values (compound 10 uM): 149.63 pg/mL

CC(C)[C@H](N)C(=O)O[C@H]1c2ccccc2C[C@]1(Cc1ccc(C(=O)O)cc1)C1=Cc2ccccc2C1 [Compound 25, 4-{[(1′R,2′R)-1′-(L-valyloxy)-1′,3′-dihydro-1H,2′H-2,2′-biinden-2′-yl]methyl}benzoic acid]
IL-2 production, absolute values (compound 1 uM): 208.38 pg/mL
IL-2 production, absolute values (compound 10 uM): 174.25 pg/mL

CC[C@H](C)[C@H](N)C(=O)O[C@H]1c2ccccc2C[C@]1(Cc1ccc(C(=O)O)cc1)C1=Cc2ccccc2C1 [Compound 26, 4-{[(1′R,2′R)-1′-(L-isoleucyloxy)-1′,3′-dihydro-1H,2′H-2,2′-biinden-2′yl]methyl}benzoic acid]
IL-2 production, absolute values (compound 1 uM): 202.25 pg/mL
IL-2 production, absolute values (compound 10 uM): 192.63 pg/mL

NCC(=O)O[C@H]1c2ccccc2C[C@]1(Cc1ccc(C(=O)O)cc1)C1=Cc2ccccc2C1 [Compound 27, 4-{[(1′R,2′R)-1′-(glycyloxy)-1′,3′-dihydro-1H,2′H-2,2′-biinden-2′-yl]methyl}benzoic acid]
effect on IL2 release, in words (1 and 10 μM): potentiates release of IL2
IL-2 production, absolute values (compound 1 uM): 350.13 pg/mL
IL-2 production, absolute values (compound 10 uM): 172.88 pg/mL

CC(C)C[C@H](N)C(=O)O[C@@H]1c2ccccc2C[C@@]1(Cc1ccc(C(=O)O)cc1)C1=Cc2ccccc2C1 [Compound 28, 4-{[(1′S,2′S)-1′-(L-leucyloxy)-1′,3′-dihydro-1H,2′H-2,2′-biinden-2′-yl]methyl}benzoic acid]
IL-2 production, absolute values (compound 1 uM): 214.75 pg/mL
IL-2 production, absolute values (compound 10 uM): 135.63 pg/mL

CC(C)[C@H](N)C(=O)O[C@@H]1c2ccccc2C[C@@]1(Cc1ccc(C(=O)O)cc1)C1=Cc2ccccc2C1 [Compound 29, 4-{[(1′S,2′S)-1′-(L-valyloxy)-1′,3′-dihydro-1H,2′H-2,2′-biinden-2′-yl]methyl}benzoic acid]
IL-2 production, absolute values (compound 1 uM): 220.50 pg/mL
IL-2 production, absolute values (compound 10 uM): 177.88 pg/mL

CC[C@H](C)[C@H](N)C(=O)O[C@@H]1c2ccccc2C[C@@]1(Cc1ccc(C(=O)O)cc1)C1=Cc2ccccc2C1 [Compound 30, 4-{[(1′S,2′S)-1′-(L-isoleucyloxy)-1′,3′-dihydro-1H,2′H-2,2′-biinden-2′-yl]methyl}benzoic acid]
IL-2 production, absolute values (compound 1 uM): 191.63 pg/mL
IL-2 production, absolute values (compound 10 uM): 174.50 pg/mL

COC(=O)c1ccc(C[C@]2(C3=Cc4ccccc4C3)Cc3ccccc3[C@@H]2OC(=O)[C@@H](N)CC(C)C)cc1 [Compound 32, methyl 4-(((1R,2R)-1-(((S)-2-amino-4-methylpentanoyl)oxy)-2,3-dihydro-1H,1′H-[2,2′-biinden]-2-yl)methyl)benzoate]
activity at 1 µM: 86.2%
activity at 10 µM: 40.8%
IL-2 production, absolute values (compound 1 uM): 215.25 pg/mL
IL-2 production, absolute values (compound 10 uM): 74.88 pg/mL

CCOC(=O)c1ccc(C[C@]2(C3=Cc4ccccc4C3)Cc3ccccc3[C@@H]2OC(=O)[C@@H](N)CC(C)C)cc1 [Compound 33, ethyl 4-(((1R,2R)-1-(((S)-2-amino-4-methylpentanoyl)oxy)-2,3-dihydro-1H,1′H-[2,2′-biinden]-2-yl)methyl)benzoate]
activity at 1 µM: 89.4%
activity at 10 µM: 43.6%
IL-2 production, absolute values (compound 1 uM): 186.25 pg/mL
IL-2 production, absolute values (compound 10 uM): 74.38 pg/mL

CCCOC(=O)c1ccc(C[C@]2(C3=Cc4ccccc4C3)Cc3ccccc3[C@@H]2OC(=O)[C@@H](N)CC(C)C)cc1 [Compound 34, propyl 4-(((1R,2R)-1-(((S)-2-amino-4-methylpentanoyl)oxy)-2,3-dihydro-1H,1′H-[2,2′-biinden]-2-yl)methyl)benzoate]
activity at 1 µM: 95.8%
activity at 10 µM: 51.5%
IL-2 production, absolute values (compound 1 uM): 173.25 pg/mL
IL-2 production, absolute values (compound 10 uM): 71.38 pg/mL
